# Experimental data reported in PubChem BioAssay (NCI).
#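 A five-concentration, 48-hour dose response in 96-well plates underlies each endpoint, interpolated linearly between surrounding concentrations. GI50 = concentration required for 50% inhibition of growth. TGI is the concentration that stops growth completely.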
# Key:
# Assay in all cases: DTP human tumour cell line panel, 48 h
# SK-MEL-28 melanoma = tested on: SK-MEL-28 melanoma
# ACHN renal = tested on: ACHN renal
# OVCAR-3 ovarian = tested on: OVCAR-3 ovarian
# MDA-MB-231 breast = tested on: MDA-MB-231 breast
# IGROV1 ovarian = tested on: IGROV1 ovarian
# NCI-H226 lung = tested on: NCI-H226 lung
# OVCAR-5 ovarian = tested on: OVCAR-5 ovarian
# CCRF-CEM leukemia = tested on: CCRF-CEM leukemia
# SW-620 colon = tested on: SW-620 colon
# MALME-3M melanoma = tested on: MALME-3M melanoma
# HT29 colon = tested on: HT29 colon
# UACC-62 melanoma = tested on: UACC-62 melanoma
# K-562 leukemia = tested on: K-562 leukemia
# U251 CNS = tested on: U251 CNS
# HL-60(TB) leukemia = tested on: HL-60(TB) leukemia
# HOP-62 NSCLC = tested on: HOP-62 NSCLC
# HCT-15 colon = tested on: HCT-15 colon
# M14 melanoma = tested on: M14 melanoma
# SNB-19 CNS = tested on: SNB-19 CNS
# UACC-257 melanoma = tested on: UACC-257 melanoma
# NCI-H460 lung = tested on: NCI-H460 lung
# HCT-116 colon = tested on: HCT-116 colon
# SF-539 CNS = tested on: SF-539 CNS
# OVCAR-4 ovarian = tested on: OVCAR-4 ovarian
# SNB-75 CNS = tested on: SNB-75 CNS
# HCC-2998 colon = tested on: HCC-2998 colon
# EKVX NSCLC = tested on: EKVX NSCLC
# LOX IMVI melanoma = tested on: LOX IMVI melanoma
structure (smiles),measurement,setting,value
CC[PH+](CC)CC.O=COC1OC([S-])C(OC=O)C(OC=O)C1OC=O.[Au+] (stereo not given),TGI,SK-MEL-28 melanoma,2.15 µM
same,GI50,ACHN renal,1.78 µM
same,TGI,ACHN renal,3.16 µM
same,GI50,OVCAR-3 ovarian,1.43 µM
same,TGI,OVCAR-3 ovarian,2.99 µM
same,GI50,MDA-MB-231 breast,1.46 µM
same,TGI,MDA-MB-231 breast,2.82 µM
same,GI50,IGROV1 ovarian,1.2 µM
same,TGI,IGROV1 ovarian,2.62 µM
same,GI50,NCI-H226 lung,1.96 µM
same,TGI,NCI-H226 lung,4.23 µM
same,GI50,OVCAR-5 ovarian,1.89 µM
same,TGI,OVCAR-5 ovarian,3.53 µM
same,GI50,CCRF-CEM leukemia,0.64 µM
same,TGI,CCRF-CEM leukemia,4.1 µM
same,GI50,SW-620 colon,1.85 µM
same,TGI,SW-620 colon,3.83 µM
same,GI50,MALME-3M melanoma,1.24 µM
same,TGI,MALME-3M melanoma,2.58 µM
same,GI50,HT29 colon,1.65 µM
same,TGI,HT29 colon,5.3 µM
same,GI50,UACC-62 melanoma,1.06 µM
same,TGI,UACC-62 melanoma,2.31 µM
same,GI50,K-562 leukemia,0.605 µM
same,TGI,K-562 leukemia,> 100 µM
same,GI50,U251 CNS,0.368 µM
same,TGI,U251 CNS,1.47 µM
same,GI50,HL-60(TB) leukemia,2.6 µM
same,TGI,HL-60(TB) leukemia,6.6 µM
same,GI50,HOP-62 NSCLC,1.58 µM
same,TGI,HOP-62 NSCLC,3.2 µM
same,GI50,HCT-15 colon,1.14 µM
same,TGI,HCT-15 colon,2.56 µM
same,GI50,M14 melanoma,1.15 µM
same,TGI,M14 melanoma,2.81 µM
same,GI50,SNB-19 CNS,1.34 µM
same,TGI,SNB-19 CNS,2.61 µM
same,GI50,UACC-257 melanoma,1.19 µM
same,TGI,UACC-257 melanoma,3.29 µM
same,GI50,NCI-H460 lung,1.71 µM
same,TGI,NCI-H460 lung,3.69 µM
same,GI50,HCT-116 colon,1.56 µM
same,TGI,HCT-116 colon,3.15 µM
same,GI50,SF-539 CNS,1.14 µM
same,TGI,SF-539 CNS,2.37 µM
same,GI50,OVCAR-4 ovarian,1.89 µM
same,TGI,OVCAR-4 ovarian,4.53 µM
same,GI50,SNB-75 CNS,0.374 µM
same,TGI,SNB-75 CNS,1.77 µM
same,GI50,HCC-2998 colon,1.6 µM
same,TGI,HCC-2998 colon,3.03 µM
same,GI50,EKVX NSCLC,1.74 µM
same,TGI,EKVX NSCLC,3.32 µM
same,GI50,LOX IMVI melanoma,0.902 µM
same,TGI,LOX IMVI melanoma,2.41 µM
